# Reference: patent US20150353495A1 (PORTOLA PHARMACEUTICALS, INC., priority 2010, published 2015)
# What was measured:
# Format in all cases: biochemical
# [1] = biological target: T1, JAK2 (Homo sapiens, UniProt O60674); experiment: Z'-LYTE kinase assay JAK2
# T1 construct: 5 μl of catalytic domain recombinant Kinase enzyme+Tyr peptide substrate (Invitrogen, CA); purchased Invitrogen
# Outline: (§1)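 Z′-LYTE FRET, Tyr6 peptide, recombinant catalytic domain + ATP, 1 h RT, 1% DMSO final, duplicates; protease development 1 h RT; fluorescence read.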
# [2] = biological target: T2, JAK1 (Homo sapiens, UniProt P23458); experiment: Z'-LYTE kinase assay JAK1
# T2 construct: 5 μl of catalytic domain recombinant Kinase enzyme+Tyr peptide substrate (Invitrogen, CA); purchased Invitrogen
# T2 sequence (P23458 875-1153 limits assumed): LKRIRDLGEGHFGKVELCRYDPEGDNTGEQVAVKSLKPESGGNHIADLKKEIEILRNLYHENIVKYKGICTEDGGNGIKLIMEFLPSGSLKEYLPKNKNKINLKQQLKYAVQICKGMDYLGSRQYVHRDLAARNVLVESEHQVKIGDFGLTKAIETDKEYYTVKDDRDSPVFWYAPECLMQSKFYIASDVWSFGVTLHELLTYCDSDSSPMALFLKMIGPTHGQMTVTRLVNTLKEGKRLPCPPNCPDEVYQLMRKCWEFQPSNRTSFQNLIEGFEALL
# Outline: as §1
# [3] = biological target: T3, TYK2 (Homo sapiens, UniProt P29597); experiment: Z'-LYTE kinase assay TYK2
# T3 construct: 5 μl of catalytic domain recombinant Kinase enzyme+Tyr peptide substrate (Invitrogen, CA); purchased Invitrogen
# T3 sequence (P29597 897-1176 limits assumed): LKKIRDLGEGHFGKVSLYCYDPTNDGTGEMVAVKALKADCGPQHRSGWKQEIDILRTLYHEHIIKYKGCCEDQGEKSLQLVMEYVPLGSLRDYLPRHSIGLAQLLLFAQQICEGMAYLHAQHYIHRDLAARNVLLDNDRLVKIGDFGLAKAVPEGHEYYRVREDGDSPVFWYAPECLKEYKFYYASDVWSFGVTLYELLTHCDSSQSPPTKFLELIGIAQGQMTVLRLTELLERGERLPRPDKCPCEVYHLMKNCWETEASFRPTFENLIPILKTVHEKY
# Experimental: JAK and TYK2 tyrosine phosphorylation activity is measured using the Z′-LYTE™ Technology developed by Invitrogen Corporation (Carlsbad, Calif.). For JAK1, JAK2 and JAK3 the Z′-LYTE™ Kinase Assay Kit-Tyr6 Peptide (part number PV4122) was used. For TYK2 the Z′-LYTE™ Kinase Assay Kit-Tyr6 Peptide (part number PV3192) was used. The Z′-LYTE™ biochemical assay employs a fluorescence resonance energy transfer (FRET) coupled-enzyme format and is based on the differential sensitivity of phosphorylated and non-phosphorylated peptides to proteolitic cleavage. The assay uses a synthetic peptide substrate that is labelled with a donor fluorophore (coumarin) and an acceptor fluorophore (fluorescein) that make up a FRET pair. In the primary reaction (the Kinase Reaction), the kinase transfers the γ-phosphate of ATP to a single tyrosine residue on the substrate, while the presence of a kinase inhibitor in the primary reaction suppresses phosphorylation. In the secondary reaction (the Development Reaction), a site-specific protease (the Development Reagent) is added. The development buffer quenches the Kinase Reaction, while the protease recognizes and cleaves non-phosphorylated Z′-LYTE™ peptide substrate. Cleavage disrupts FRET between the donor and acceptor fluorophores on the non-phosphoryleted substrate, while uncleaved, phosphorylated substrate maintains FRET.
# To test the ability of candidate molecules to inhibit JAK tyrosine phosphorylation activity, molecules are reconstituted in 100% DMSO and serially diluted 1:10 in polypropylene v-bottom microtiter plates. The candidate molecules are then diluted 1:25 into kinase buffer and 2.5 μl transferred into duplicate wells of a 384 well low volume black microtiter assay plate (Corning, USA). The final DMSO concentration in the assay is 1%. The kinase reaction contains 2.5 μl of a candidate molecule, 5 μl of catalytic domain recombinant Kinase enzyme+Tyr peptide substrate (Invitrogen, CA) and 2.5 μl ATP (Invitrogen, CA). The kinase reaction is allowed to procede for 1 hour at room temperature. The protease reaction is initiated by the addition of 5 μl Development Reagent (Invitrogen, CA). After 1 hour incubation at room temperature the fluorescence is measured using a FlexStation plate reader (Molecular Devices, Sunnyvale, Calif.). The reader settings used are as follows: Fluorescence mode, endpoint, top read, excitation 400 nm, emission 445 nm and 520 nm, Auto Cutoff 435 nm and 515 nm, PMT sensitivity high, 6 reads per well Inhibition of JAK kinase activity is calculated as the percent phosphorylation of substrate in the presence of inhibitor compared to the percent phosphorylation of substrate in the absence of inhibitor. IC50's were derived using Xlfit 4.3 (IDBS, UK), 4 parameter logistic model 205: Y=(A+4B-A)/(1+((C/x)AD)))).
# [4] = biological target: T4, JAK3 (Homo sapiens, UniProt P52333); experiment: Z'-LYTE kinase assay JAK3
# T4 construct: 5 μl of catalytic domain recombinant Kinase enzyme+Tyr peptide substrate (Invitrogen, CA); purchased Invitrogen
# T4 sequence (P52333 822-1111 limits assumed): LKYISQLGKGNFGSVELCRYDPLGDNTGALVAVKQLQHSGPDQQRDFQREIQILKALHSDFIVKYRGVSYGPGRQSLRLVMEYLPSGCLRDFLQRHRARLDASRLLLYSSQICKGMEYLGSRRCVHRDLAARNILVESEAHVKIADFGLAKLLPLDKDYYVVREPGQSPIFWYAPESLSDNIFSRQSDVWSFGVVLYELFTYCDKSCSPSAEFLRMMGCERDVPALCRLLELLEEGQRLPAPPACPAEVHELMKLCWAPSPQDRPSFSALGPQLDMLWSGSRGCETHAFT
# Outline: as §1
# T1 sequence (O60674 849-1124 limits assumed): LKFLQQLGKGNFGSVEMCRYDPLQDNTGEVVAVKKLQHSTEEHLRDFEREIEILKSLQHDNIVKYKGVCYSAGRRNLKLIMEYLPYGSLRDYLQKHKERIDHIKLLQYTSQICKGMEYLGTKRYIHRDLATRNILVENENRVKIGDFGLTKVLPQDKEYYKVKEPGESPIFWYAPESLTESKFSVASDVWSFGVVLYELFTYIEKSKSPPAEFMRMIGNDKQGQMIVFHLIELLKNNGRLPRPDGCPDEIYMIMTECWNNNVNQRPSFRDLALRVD
Structure (SMILES),IC50 [1] [nM],IC50 [2] [nM],IC50 [3] [nM],IC50 [4] [nM]
"CCC(=O)N1CCC(c2ccc(Nc3cc(NCc4cccs4)c(C(N)=O)cn3)cc2)CC1 [Example 197, 6-(4-(1-propionylpiperidin-4-yl)phenylamino)-4-(thiophen-2-ylmethylamino)nicotinamide]",100 to 1000,100 to 1000,100 to 1000,1 to 10
"CC(=O)Nc1cccc(Nc2nc(N[C@H](C)c3ccccc3)c(C(N)=O)cc2F)c1 [Example 20, (R)-6-(3-acetamidophenylamino)-5-fluoro-2-(1-phenylethylamino)nicotinamide]",> 1000,> 1000,> 1000,> 1000
"NC(=O)c1cc(F)c(Nc2ccc(OCCN3CCCC3)cc2)nc1NC1CCCC1 [Example 25, 2-(cyclopentylamino)-5-fluoro-6-(4-(2-(pyrrolidin-1-yl)ethoxy)phenylamino)nicotinamide]",> 1000,> 1000,> 1000,> 1000
"NC(=O)c1cc(F)c(Nc2cccc(-n3nccn3)c2)nc1NC1CCCC1 [Example 22, 6-(3-(2H-1,2,3-triazol-2-yl)phenylamino)-2-(cyclopentylamino)-5-fluoronicotinamide]",> 1000,> 1000,> 1000,100 to 1000
"NC(=O)c1cc(F)c(Nc2cccc(-n3nccn3)c2)nc1NCc1ccccc1 [Example 23, 6-(3-(2H-1,2,3-triazol-2-yl)phenylamino)-2-(benzylamino)-5-fluoronicotinamide]",> 1000,> 1000,> 1000,> 1000
"CCC(=O)N1CCC(c2ccc(Nc3cc(NCc4cc(F)cc(F)c4)c(C(N)=O)cn3)cc2)CC1 [Example 195, 4-(3,5-difluorobenzylamino)-6-(4-(1-propionylpiperidin-4-yl)phenylamino)nicotinamide]",10 to 100,> 1000,> 1000,1 to 10
"NC(=O)c1cnc(Nc2ccc(C3CCOCC3)cc2)cc1NCc1cccc(F)c1 [Example 143, 4-(3-fluorobenzylamino)-6-(4-(tetrahydro-2H-pyran-4-yl)phenylamino)nicotinamide]",> 1000,> 1000,> 1000,10 to 100
"Cc1cccc(Nc2cc(Nc3ccc(OCCN4CCCC4)cc3)ncc2C(N)=O)c1 [Example 14, 4-(3-toluidino)-6-(4-(2-(pyrrolidin-1-yl)ethoxy)phenylamino)nicotinamide]",100 to 1000,> 1000,100 to 1000,100 to 1000
"CC(C)(C)OC(=O)N1CCC(c2ccc(Nc3cc(NCc4cccc(F)c4)c(C(N)=O)cn3)cc2)CC1 [Example 77, tert-butyl 4-(4-(5-carbamoyl-4-(3-fluorobenzylamino)pyridin-2-ylamino)phenyl)piperidine-1-carboxylate]",> 1000,> 1000,> 1000,100 to 1000
"CCC(=O)N1CCC(c2ccc(Nc3cc(N[C@H](C)c4ccccc4)c(C(N)=O)cn3)cc2)CC1 [Example 199, (R)-4-(1-phenylethylamino)-6-(4-(1-propionylpiperidin-4-yl)phenylamino)nicotinamide]",100 to 1000,> 1000,> 1000,10 to 100
"CC(=O)Nc1cccc(Nc2nc(NCc3ccccc3)c(C(N)=O)cc2F)c1 [Example 19, 6-(3-acetamidophenylamino)-2-(benzylamino)-5-fluoronicotinamide]",> 1000,> 1000,> 1000,> 1000
"CC(=O)N1CCN(c2ccc(Nc3cc(NC(C)C)c(C(N)=O)cn3)cc2)CC1 [Example 234, 6-(4-(4-acetylpiperazin-1-yl)phenylamino)-4-(isopropylamino)nicotinamide]",> 1000,> 1000,100 to 1000,100 to 1000
CC(=O)N1CCN(c2ccc(Nc3cc(NCCc4ccccc4)c(C(N)=O)cn3)cc2)CC1 [Example 29],100 to 1000,> 1000,100 to 1000,10 to 100
"CCC(=O)N1CCC(c2ccc(Nc3cc(NCc4cccc(F)c4F)c(C(N)=O)cn3)cc2)CC1 [Example 196, 4-(2,3-difluorobenzylamino)-6-(4-(1-propionylpiperidin-4-yl)phenylamino)nicotinamide]",10 to 100,100 to 1000,100 to 1000,1 to 10

# More lines, now with the values ahead:
IC50 [1] [nM],IC50 [2] [nM],IC50 [3] [nM],IC50 [4] [nM],Structure (SMILES)
10 to 100,100 to 1000,100 to 1000,1 to 10,Cc1cc(Nc2cc(NCc3cncc(F)c3)c(C(N)=O)cn2)ccc1C(=O)N(C)C [Example 297]
100 to 1000,100 to 1000,100 to 1000,1 to 10,N#CCCc1ccc(Nc2cc(NCc3ccccc3)c(C(N)=O)cn2)cc1 [Example 386]
100 to 1000,> 1000,100 to 1000,1 to 10,"CN(C)C(=O)c1ccc(Nc2cc(NCc3ccccc3)c(C(N)=O)cn2)cc1Cl [Example 437, 4-(benzylamino)-6-(3-chloro-4-(dimethylcarbamoyl)phenylamino)nicotinamide]"
100 to 1000,100 to 1000,100 to 1000,1 to 10,"Cc1cc(Nc2cc(NCc3ccccc3)c(C(N)=O)cn2)ccc1C(=O)NCCO [Example 449, 4-(benzylamino)-6-(4-(2-hydroxyethylcarbamoyl)-3-methylphenylamino)nicotinamide]"
10 to 100,100 to 1000,100 to 1000,1 to 10,"COCCN(C)C(=O)c1ccc(Nc2cc(NCc3ccccc3)c(C(N)=O)cn2)cc1C [Example 453, 4-(benzylamino)-6-(4-((2-methoxyethyl)(methyl)carbamoyl)-3-methylphenylamino)nicotinamide]"
100 to 1000,100 to 1000,10 to 100,10 to 100,"CC(=O)N1CCN(c2ccc(Nc3cc(NCC4CCC4)c(C(N)=O)cn3)cc2)CC1 [Example 243, 6-(4-(4-acetylpiperazin-1-yl)phenylamino)-4-(cyclobutylmethylamino)nicotinamide]"
10 to 100,100 to 1000,100 to 1000,1 to 10,Cc1cc(Nc2cc(NCc3ccccc3)c(C(N)=O)cn2)ccc1C(=O)N(C)CCO [Example 452]
100 to 1000,> 1000,> 1000,10 to 100,"CS(=O)(=O)N1CCN(c2ccc(Nc3cc(NC4(c5ccccc5)CC4)c(C(N)=O)cn3)cc2)CC1 [Example 364, 6-(4-(4-(methylsufonly)piperazin-1-yl)phenylamino)-4-(1-phenylcyclopropylamino)nicotinamide]"
10 to 100,100 to 1000,10 to 100,1 to 10,"Cc1cc(Nc2cc(NCc3ccccc3)c(C(N)=O)cn2)ccc1C(=O)N1CCC1 [Example 448, 6-(4-(azetidine-1-carbonyl)-3-methylphenylamino)-4-(benzylamino)nicotinamide]"
> 1000,> 1000,> 1000,10 to 100,"CN(C)C(=O)COc1cccc(Nc2cc(NC3(c4ccccc4)CC3)c(C(N)=O)cn2)c1 [Example 365, 6-(3-(2-(dimethylamino)-2-oxoethoxy)phenylamino)-4-(1-phenylcyclopropylamino)nicotinamide]"
